Where two headings read alike, the source gives them in different places.
Legend:
GPR139 = molecular target: T1, GPR139 (Homo sapiens, UniProt Q6DWJ6); assay: GPR139 Agonist titration / agonist counterscreen assay (calcium detection, HEK-GPR139 cells); format: cell-based; design: expressed in transfected cells; host or cells: HEK Aequorin cells, Maxcyte transient transfection; conditions: GPR139 Agonist Activity; for Averaged Max % Response (±St. Dev.): activity relative to known control; for EC50: read-out: EC50
T1 sequence (Q6DWJ6 1-353): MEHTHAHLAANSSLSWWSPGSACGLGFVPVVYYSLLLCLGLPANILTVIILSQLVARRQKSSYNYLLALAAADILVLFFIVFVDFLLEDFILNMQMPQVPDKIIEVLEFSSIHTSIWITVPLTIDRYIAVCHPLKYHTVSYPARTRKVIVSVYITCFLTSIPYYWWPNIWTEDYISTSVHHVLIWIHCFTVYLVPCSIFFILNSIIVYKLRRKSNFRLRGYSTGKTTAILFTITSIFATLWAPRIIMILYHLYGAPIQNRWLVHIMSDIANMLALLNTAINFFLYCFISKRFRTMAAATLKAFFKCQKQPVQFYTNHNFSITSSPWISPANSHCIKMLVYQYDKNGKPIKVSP
Description: GPR activity was assessed using a calcium detection assay. […] Negative control samples were treated with DMSO. […] Intracellular calcium was measured using Calcium 5.

parental HEK cells = assay: HEK parental Agonist Counterscreen Assay (non-transfected cells); format: cell-based; conditions: for Averaged Max % Response (±St. Dev.): activity relative to known control
From the text: The high control for the agonist counterscreen was Forskolin not acetylcholine.

[1] = values printed in E-notation without unit
[2] = HEK Agonist Activity section of Table 4 (parental HEK counterscreen)
[3] = Homo sapiens, HEK293, HEK Agonist Activity section of Table 4 (parental HEK counterscreen)
[4] = Homo sapiens, HEK293, HEK Agonist Activity, parental non-transfected HEK cells

## COc1cccc(C(=O)NNC(=O)CCCOc2ccc(Cl)cc2Cl)c1 [SR-01000205482]
GPR139
  Averaged Max % Response (±St. Dev.): 120.13 ± 6.96%
GPR139; based on logD
  Lipophilic Efficiency (logD): 5.35
GPR139; based on logP
  Lipophilic Efficiency (logP): 5.34
GPR139; ligand efficiency
  Efficiency Ligand: 0.47
Parental HEK cells; HEK Agonist Activity
  Lipophilic Efficiency (logD): 1.53
  Lipophilic Efficiency (logP): 1.52
  Averaged Max % Response (±St. Dev.): −5.45 ± 10.43%
Parental HEK cells; HEK Agonist Activity, parental non-transfected HEK cells
  EC50: > 14.1 µM

## Cc1cccnc1CNC(=O)CCC1(Cc2cccc3ccccc23)CCC(=O)N1 (stereo not shown) [SR-01000207758]
GPR139
  Averaged Max % Response (±St. Dev.): 124.78 ± 10.06%
GPR139; based on logD
  Lipophilic Efficiency (logD): 3.82
GPR139; based on logP
  Lipophilic Efficiency (logP): 3.82
GPR139; fitted dose-response curve
  Hill Slope: 0.77
GPR139; ligand efficiency
  Efficiency Ligand: 0.31
GPR139; [1]
  EC50: 178 nM
Parental HEK cells; HEK Agonist Activity section
  Lipophilic Efficiency (logD): 1.92
  Lipophilic Efficiency (logP): 1.92
  Averaged Max % Response (±St. Dev.): 2.94 ± 8.83%
Parental HEK cells; [2]
  EC50: > 14.1 µM

## Cc1cc(C)c(/C=C2/NC(=N)NC2=O)c(C)c1 [SR-01000218376]
GPR139
  Averaged Max % Response (±St. Dev.): 76.44 ± 0.80%
GPR139; based on logD
  Lipophilic Efficiency (logD): 3.82
GPR139; based on logP
  Lipophilic Efficiency (logP): 3.82
GPR139; fitted dose-response curve
  Hill Slope: 0.92
GPR139; ligand efficiency
  Efficiency Ligand: 0.59
GPR139; [1]
  EC50: 60.5 nM
Parental HEK cells; HEK Agonist Activity section
  Lipophilic Efficiency (logD): 1.45
  Lipophilic Efficiency (logP): 1.45
  Averaged Max % Response (±St. Dev.): 1.93 ± 7.79%
Parental HEK cells; [3]
  EC50: > 14.1 µM

## COc1ccc(NC(=O)NCCOc2cccc3ccccc23)cc1OC [SR-01000223498]
GPR139
  Averaged Max % Response (±St. Dev.): 115.59 ± 14.29%
GPR139; based on logD
  Lipophilic Efficiency (logD): 4.05
GPR139; based on logP
  Lipophilic Efficiency (logP): 4.05
GPR139; fitted dose-response curve
  Hill Slope: 0.81
GPR139; ligand efficiency
  Efficiency Ligand: 0.39
GPR139; [1]
  EC50: 33.9 nM
Parental HEK cells; HEK Agonist Activity
  Lipophilic Efficiency (logD): 1.43
  Lipophilic Efficiency (logP): 1.43
  Averaged Max % Response (±St. Dev.): 15.10 ± 2.28%
Parental HEK cells; [4]
  EC50: > 14.1 µM

## Cc1c(C(=O)NC(C)(C)CO)cnn1-c1ncc2c(n1)-c1ccccc1CC2 [SR-01000239973]
GPR139
  Averaged Max % Response (±St. Dev.): 105.15 ± 8.65%
GPR139; based on logD
  Lipophilic Efficiency (logD): 5.11
GPR139; based on logP
  Lipophilic Efficiency (logP): 5.11
GPR139; fitted dose-response curve
  Hill Slope: 0.92
GPR139; ligand efficiency
  Efficiency Ligand: 0.39
GPR139; [1]
  EC50: 15.7 nM
Parental HEK cells; HEK Agonist Activity
  Lipophilic Efficiency (logD): 2.16
  Lipophilic Efficiency (logP): 2.16
  Averaged Max % Response (±St. Dev.): −7.52 ± 3.99%
Parental HEK cells; [4]
  EC50: > 14.1 µM

## CCOc1ccc(C(=O)NCCc2ccc(F)cc2)cc1OCC [SR-01000243797]
GPR139
  Averaged Max % Response (±St. Dev.): 105.74 ± 4.40%
GPR139; based on logD
  Lipophilic Efficiency (logD): 3.09
GPR139; based on logP
  Lipophilic Efficiency (logP): 3.09
GPR139; fitted dose-response curve
  Hill Slope: 1.05
GPR139; ligand efficiency
  Efficiency Ligand: 0.39
GPR139; [1]
  EC50: 205 nM
Parental HEK cells; HEK Agonist Activity section
  Lipophilic Efficiency (logD): 1.25
  Lipophilic Efficiency (logP): 1.25
  Averaged Max % Response (±St. Dev.): 10.10 ± 12.81%
Parental HEK cells; [3]
  EC50: > 14.1 µM

## COC(=O)c1ccc(NC(=O)CNC(=O)C2CCCCC2)c(C)c1 [SR-01000246445]
GPR139
  Efficiency Ligand: 0.36
  Hill Slope: 1.22
  Lipophilic Efficiency (logD): 3.52
  Lipophilic Efficiency (logP): 3.52
  Averaged Max % Response (±St. Dev.): 77.11 ± 5.52%
GPR139; HEK-GPR139 cells
  EC50: 554 nM
Parental HEK cells; HEK Agonist Activity section
  Lipophilic Efficiency (logD): 2.12
  Lipophilic Efficiency (logP): 2.12
  Averaged Max % Response (±St. Dev.): 30.43 ± 4.82%
Parental HEK cells; [3]
  EC50: > 14.1 µM

## CCOC(=O)c1ccc(NC(=O)Cn2c(C)c(C=O)c3ccccc32)cc1 [SR-01000248261]
GPR139
  Efficiency Ligand: 0.30
  Hill Slope: 1.06
  Lipophilic Efficiency (logD): 2.28
  Lipophilic Efficiency (logP): 2.28
  Averaged Max % Response (±St. Dev.): 81.40 ± 9.66%
GPR139; HEK-GPR139 cells
  EC50: 1700 nM
Parental HEK cells; HEK Agonist Activity section
  Lipophilic Efficiency (logD): 1.37
  Lipophilic Efficiency (logP): 1.37
  Averaged Max % Response (±St. Dev.): 19.46 ± 6.76%
Parental HEK cells; [2]
  EC50: > 14.1 µM

## CCOC(=O)c1cccc(NC(=O)Cc2cccc3ccccc23)c1 [SR-01000267161]
GPR139
  Efficiency Ligand: 0.33
  Hill Slope: 0.55
  Lipophilic Efficiency (logD): 1.49
  Lipophilic Efficiency (logP): 1.49
  Averaged Max % Response (±St. Dev.): 105.03 ± 11.34%
GPR139; HEK-GPR139 cells
  EC50: 1300 nM
Parental HEK cells; HEK Agonist Activity section
  Lipophilic Efficiency (logD): 0.46
  Lipophilic Efficiency (logP): 0.46
  Averaged Max % Response (±St. Dev.): 13.91 ± 0.63%
Parental HEK cells; [2]
  EC50: > 14.1 µM

## Cc1c(C=O)c2ccccc2n1CC(=O)NCc1ccccc1 [SR-01000269911]
GPR139
  Efficiency Ligand: 0.37
  Hill Slope: 1.69
  Lipophilic Efficiency (logD): 3.22
  Lipophilic Efficiency (logP): 3.22
  Averaged Max % Response (±St. Dev.): 88.11 ± 5.39%
GPR139; HEK-GPR139 cells
  EC50: 898 nM
Parental HEK cells; HEK Agonist Activity section
  Lipophilic Efficiency (logD): 2.02
  Lipophilic Efficiency (logP): 2.02
  Averaged Max % Response (±St. Dev.): 5.27 ± 9.17%
Parental HEK cells; [3]
  EC50: > 14.1 µM

## COc1ccc(CCNC(=O)Nc2ccc(C)cc2)cc1 [SR-01000271555]
GPR139
  Averaged Max % Response (±St. Dev.): 124.00 ± 20.16%
GPR139; based on logD
  Lipophilic Efficiency (logD): 3.11
GPR139; based on logP
  Lipophilic Efficiency (logP): 3.11
GPR139; fitted dose-response curve
  Hill Slope: 0.62
GPR139; ligand efficiency
  Efficiency Ligand: 0.44
GPR139; [1]
  EC50: 260 nM
Parental HEK cells; HEK Agonist Activity section
  Lipophilic Efficiency (logD): 1.38
  Lipophilic Efficiency (logP): 1.38
  Averaged Max % Response (±St. Dev.): 14.71 ± 4.12%
Parental HEK cells; [3]
  EC50: > 14.1 µM

## CCOC(=O)c1ccc(CSc2nnc(N)s2)cc1 [SR-01000273754]
GPR139
  Averaged Max % Response (±St. Dev.): 86.25 ± 6.17%
GPR139; based on logD
  Lipophilic Efficiency (logD): 4.03
GPR139; based on logP
  Lipophilic Efficiency (logP): 4.03
GPR139; fitted dose-response curve
  Hill Slope: 0.89
GPR139; ligand efficiency
  Efficiency Ligand: 0.51
GPR139; [1]
  EC50: 118 nM
Parental HEK cells; HEK Agonist Activity section
  Lipophilic Efficiency (logD): 1.95
  Lipophilic Efficiency (logP): 1.95
  Averaged Max % Response (±St. Dev.): 2.38 ± 11.60%
Parental HEK cells; [2]
  EC50: > 14.1 µM

## COc1ccc(OC)c(NC(=O)NNC(=O)C(C)Oc2ccc(Cl)cc2Cl)c1 (stereo not shown) [SR-01000276878]
GPR139
  Averaged Max % Response (±St. Dev.): 97.36 ± 11.63%
GPR139; based on logD
  Lipophilic Efficiency (logD): 4.40
GPR139; based on logP
  Lipophilic Efficiency (logP): 4.36
GPR139; fitted dose-response curve
  Hill Slope: 0.75
GPR139; ligand efficiency
  Efficiency Ligand: 0.38
GPR139; [1]
  EC50: 23.9 nM
Parental HEK cells; HEK Agonist Activity
  Lipophilic Efficiency (logD): 1.62
  Lipophilic Efficiency (logP): 1.58
  Averaged Max % Response (±St. Dev.): 6.40 ± 8.50%
Parental HEK cells; [4]
  EC50: > 14.1 µM

## COc1ccc(C)cc1NC(=O)NNC(=O)C(C)Oc1ccc(F)cc1Cl (stereo not shown) [SR-01000277633]
GPR139
  Efficiency Ligand: 0.33
  Hill Slope: 1.11
  Lipophilic Efficiency (logD): 2.85
  Lipophilic Efficiency (logP): 2.82
  Averaged Max % Response (±St. Dev.): 93.18 ± 13.55%
GPR139; HEK-GPR139 cells
  EC50: 508 nM
Parental HEK cells; HEK Agonist Activity section
  Lipophilic Efficiency (logD): 1.40
  Lipophilic Efficiency (logP): 1.38
  Averaged Max % Response (±St. Dev.): −5.71 ± 6.76%
Parental HEK cells; [3]
  EC50: > 14.1 µM

## O=C(CNc1nnc(CCCOc2ccc(Cl)cc2Cl)o1)Nc1nccs1 [SR-01000280669]
GPR139
  Efficiency Ligand: 0.33
  Hill Slope: 0.56
  Lipophilic Efficiency (logD): 2.70
  Lipophilic Efficiency (logP): 2.70
  Averaged Max % Response (±St. Dev.): 83.43 ± 6.82%
GPR139; HEK-GPR139 cells
  EC50: 516 nM
Parental HEK cells; HEK Agonist Activity section
  Lipophilic Efficiency (logD): 1.27
  Lipophilic Efficiency (logP): 1.27
  Averaged Max % Response (±St. Dev.): −0.76 ± 4.25%
Parental HEK cells; [3]
  EC50: > 14.1 µM
